The results in this text go back to the supplement of paper PMC11061612.

The test system of assay [1] is CHP-134 (Neuroblastoma). Kind of assay: combination Emax (second highest fraction inhibited in the dose matrix, 72 h); higher = more inhibition; extreme values may be limits of the assay. Summed up: (§1)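 Cell lines in DMEM/F12 or RPMI with 10% FBS were plated in 1536-well plates, held 24 hours at 37°C, 5% CO2, then given two-drug dose matrices for 72 hours (DMSO typically 0.2%). Viability was read by CellTiter-Glo 2.0 luminescence and scaled as inhibition from 0 (vehicle wells) to 1 (blank wells). Combination Emax is the second-highest inhibition in the matrix; Bliss excess is observed combination effect minus expected EA + EB − EA·EB, EA and EB being single-agent effects.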

Assay [2] has as its system BFTC-909 (Kidney Carcinoma). Described as above. Summed up:
as §1

Assay [3] relates to Hs-746T (Gastric Carcinoma). The description is as above. A digest of the protocol: as §1
In assay [4] the test system is YAPC (Pancreatic Carcinoma). The assay is described as above. Summed up: as §1
The next assay concerns KS-1 (Glioblastoma). The assay is described as above. Summed up: as §1
In assay [5] the test system is ALL-PO (B-Lymphoblastic Leukemia). The assay is described as above. A digest of the protocol:
as §1

The subject of assay [6] is NCI-H720 (Other Solid Carcinomas). Described as above. Summed up:
as §1

For assay [7], the system named is L-428 (Hodgkin's Lymphoma). The assay is described as above. A digest of the protocol: as §1
The test system of assay [8] is TGBC1TKB (Biliary Tract Carcinoma). The assay is described as above. Summed up:
as §1

Assay [9] deals with NCI-H209 (Small Cell Lung Carcinoma). Described as above. Summed up:
as §1

The subject of assay [10] is LCLC-97TM1 (Non-Small Cell Lung Carcinoma). The description is as above. Summed up: as §1
Another assay concerns GAMG (Glioblastoma). Described as above. Summed up: as §1
The test system of assay [11] is CHP-134 (Neuroblastoma). Kind of assay: Bliss excess, mean over the matrix (fraction); higher = more synergy. A digest of the protocol: as §1
Assay [12] has as its system NCI-H720 (Other Solid Carcinomas). The assay is described as above. Summed up: as §1

Consider `CN(C)CCCOc1ccc(-c2ccc3ncc4c(c3c2)n(C2CCOCC2)c(=O)n4C)cn1` [AZD0156] + O=C(c1cc(Cc2n[nH]c(=O)c3ccccc23)ccc1F)N1CCN(C(=O)C2CC2)CC1 [Olaparib] (first compound max 3 µM, partner max 3 µM), for which the “combination Emax” value in the assay on CHP-134 (Neuroblastoma) [1] came out at 0.434; in assay [2], 0.527; in assay [3], 0.378; in [4] it was 0.283; in the assay on KS-1 (Glioblastoma), 0.197; in assay [5], 0.505. The “combination Emax” value in assay [6] was 0.371; in assay [7], 0.228; in [8], 0.157; in assay [9] it was 0.792; in assay [10], 0.109; with GAMG (Glioblastoma) it was 0.336. For the same molecule, the Bliss excess is 0.174 in the assay with CHP-134 (Neuroblastoma) [11] and 0.0622 in assay [12].

In the case of `C=CCn1c(=O)c2cnc(Nc3ccc(N4CCN(C)CC4)cc3)nc2n1-c1cccc(C(C)(C)O)n1` [AZD1775] + C1CN(CCC1(C(=O)N[C@@H](CCO)C2=CC=C(C=C2)Cl)N)C3=NC=NC4=C3C=CN4 [Capivasertib] (first compound max 3 µM, partner max 3 µM), the “combination Emax” value was determined as 0.844 in the assay on CHP-134 (Neuroblastoma) [1]; 0.922 in assay [2]; 0.772 in [3]; 0.591 in assay [4]; 0.589 with KS-1 (Glioblastoma); 0.754 in [5]. The “combination Emax” value in assay [6] is 0.842; in [7], 0.759; in assay [8] it was 0.434; in [9], 0.873; in assay [10], 0.793; with GAMG (Glioblastoma), 0.829. For the same molecule, the Bliss excess with CHP-134 (Neuroblastoma) [11] was -0.0416; in assay [12], -0.0252.
